# Source: US9233961B2, “Compounds and compositions for the treatment of parasitic diseases” (Novartis AG, priority 2013, dated 2016)
# Like-named read-outs stand apart in the source and are kept apart here.
# Columns and labels:
# [1] = tested on: L. donovani HU3 strain in mouse peritoneal macrophages; test: Assay for proliferation of Leishmania parasites in mouse peritoneal macrophages; assay type: cell-based, Leishmania donovani; conditions: Leishmania donovani, Peritoneal macrophage
# Procedure, shortened: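 EC50 derives from counting SYBR Green-stained parasite nuclei by high-content imaging after 5 days' compound exposure. Host cells were uninfected BALB/c peritoneal macrophages, infected for 24 h before dosing with spleen-derived L. donovani HU3 parasites from mice infected 9–11 weeks.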
# [2] = tested on: Leishmania donovani axenic amastigote parasites; test: Leishmania donovani axenic amastigote proliferation assay; assay type: cell-based; conditions: axenic amastigotes in vitro, read-out: L. donovani amastigotes EC50
# Procedure, shortened: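 EC50 values come from CellTiter-Glo luminescence after 2-day compound exposure of axenic amastigotes (9600 per well) at 37 °C, 5% CO2. Medium: RPMI 1640, 20% heat-inactivated FBS, folic acid, adenosine, D-glucose, 25 mM MES, adjusted to pH 5.5.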
# [3] = tested on: Trypanosoma brucei Lister 427 strain bloodstream form; test: Assay for proliferation of kinetoplastid parasite Trypanosoma brucei; assay type: cell-based; conditions: Lister 427 bloodstream form, 48 hours, read-out: T. brucei EC50
# Text: Assay for Proliferation of Kinetoplastid Parasite Trypanosoma brucei.
# The proliferation is quantified by the addition of Cell Titer Glo (Promega®) a luminescent cell viability assay that measures the number of viable cells in culture based on the quantification of cellular ATP amount, which is an indicator of metabolically active cells.
# The following assay illustrates the invention without in any way limiting the scope of the invention. This parasite proliferation assay measures the increase in parasite growth using an assay that measures ATP activity, Cell Titer Glo®.
# Trypanosoma brucei Lister 427 strain is grown in HMI-9 Trypanosome media for T. brucei bloodstream form. 30 μl of HMI-9 media is dispensed into 384 well assay plates. 200 nl of compounds of the invention (in DMSO), including anti-trypanosome controls (Pentamidine and suramin), are then transferred into the assay plates, as well as DMSO alone to serve as a negative control for inhibition. Then 25 μl of a suspension of T. brucei culture in HMI-9 media is dispensed into the assay plates. The final concentration of parasites in culture corresponds to 1.7% of 0.5 uM ATP activity with Cell Titer Glo® in HMI-9 media. The plates are placed in a 37° C. incubator for 48 hours in an atmospheric environment containing 5% CO2. 40 μl of Cell Titer Glo® is dispensed into the plates. The plates are then read for luminescence. The percentage inhibition of 50%, EC50, is calculated for each compound.
# [4] = read-out: L. donavani Macrophage EC50
SMILES,"EC50 [1, 4]",EC50 [2],EC50 [3],EC50 ([1]; read-out: L. donavani Macrophage EC50 (μM))
COc1ccnc(C(=O)Nc2ccc(Cl)c(-c3nc4ncc(C)cc4[nH]3)c2)c1 [Compound 173],18.1 µM,> 25 µM,> 13.8 µM,–
Cc1cnc2nc(-c3cc(NC(=O)Cc4c(F)cccc4F)ccc3Cl)[nH]c2c1 [Compound 87],24.4 µM,> 25 µM,> 6.9 µM,–
Cc1cnc2nc(-c3cc(Nc4ccc(N(C)C)cn4)ccc3Cl)[nH]c2c1 [Compound 259],> 50 µM,> 25 µM,> 25 µM,–
COC(=O)Nc1ccc(-c2cnc3nc(-c4cc(NC(=O)c5ccco5)ccc4Cl)oc3c2)cc1 [Compound 417],–,0.212 µM,0.056 µM,0.49 µM
Cc1cnc2nc(-c3cc(NS(=O)(=O)c4c(C)noc4C)ccc3Cl)[nH]c2c1 [Compound 253],> 28.4 µM,> 24.9 µM,> 25 µM,–
Cc1cnc2nc(-c3cc(NC(=O)c4ccc(C(F)(F)F)cn4)ccc3Cl)[nH]c2c1 [Compound 115],25.3 µM,16.8 µM,2.6 µM,–
Cc1cnc2nc(-c3cc(NC(=O)c4cnc(C)cn4)ccc3Cl)[nH]c2c1 [Compound 178],> 50 µM,23.8 µM,15.2 µM,–
Cc1cnc2nc(-c3cc(NC(=O)Cn4cccnc4=O)ccc3Cl)[nH]c2c1 [Compound 168],> 50 µM,> 25 µM,> 16.7 µM,–
Cc1cnc2nc(-c3cc(NC(=O)CCO)ccc3Cl)[nH]c2c1 [Compound 143],> 50 µM,> 25 µM,> 14.4 µM,–
Cc1cnc2nc(-c3cc(NC(=O)OCC(C)C)ccc3Cl)[nH]c2c1 [Compound 220],17.3 µM,7.4 µM,1.66 µM,–
Cc1cnc2nc(-c3cc(NC(=O)c4cc[nH]n4)ccc3Cl)[nH]c2c1 [Compound 157],> 34.6 µM,> 25 µM,12.8 µM,–
Cc1cnc2nc(-c3cc(NC(=O)C4Cc5ccccc5O4)ccc3Cl)[nH]c2c1 (stereo not drawn) [Compound 123],> 50 µM,20.3 µM,4.1 µM,–
Cc1cnc2nc(-c3cc(NC(=O)CCCN(C)C)ccc3Cl)[nH]c2c1 [Compound 159],> 50 µM,> 25 µM,> 12.2 µM,–
Cc1cnc2nc(-c3cc(NS(=O)(=O)N4CCCCC4)ccc3Cl)[nH]c2c1 [Compound 254],> 50 µM,> 25 µM,> 25 µM,–
Cc1cnc2nc(-c3cc(Nc4nccc5c4CCN(Cc4ccccc4)C5)ccc3Cl)[nH]c2c1 [Compound 265],15.6 µM,> 25 µM,8.2 µM,–
O=C(Nc1ccc(Cl)c(-c2nc3ncc(C(F)(F)F)cc3[nH]2)c1)C1CCCC1 [Compound 282],3.3 µM,17.5 µM,11.2 µM,–
Cc1cnc2nc(-c3cc(Nc4ccc(-n5cncn5)nc4)ccc3Cl)[nH]c2c1 [Compound 258],> 50 µM,> 25 µM,> 15.4 µM,–
Cc1cnc2nc(-c3cc(NC(=O)c4ccc(S(C)(=O)=O)cc4)ccc3Cl)[nH]c2c1 [Compound 193],> 50 µM,> 25 µM,15.2 µM,–
Cc1ccc(CC(=O)Nc2ccc(Cl)c(-c3nc4ncc(C)cc4[nH]3)c2)cc1 [Compound 167],16.1 µM,> 25 µM,> 11.5 µM,–
Cc1cnc2nc(-c3cc(NC(=O)c4cnccn4)ccc3Cl)[nH]c2c1 [Compound 206],13.4 µM,1.56 µM,0.174 µM,–
Cc1cnc2nc(-c3cc(NC(=O)c4cnco4)ccc3Cl)[nH]c2c1 [Compound 177],> 50 µM,2.28 µM,1.66 µM,–
COc1ccc(CC(=O)Nc2ccc(Cl)c(-c3nc4ncc(C)cc4[nH]3)c2)cc1 [Compound 156],27.2 µM,> 25 µM,> 14.2 µM,–
Cc1cnc2nc(-c3cc(NS(=O)(=O)c4cccs4)ccc3Cl)[nH]c2c1 [Compound 251],> 50 µM,> 25 µM,> 18.2 µM,–

SMILES,"EC50 [1, 4]",EC50 [2],EC50 [3],EC50 ([1]; read-out: L. donavani Macrophage EC50 (μM))
CO[C@@H](C(=O)Nc1ccc(Cl)c(-c2nc3ncc(C)cc3[nH]2)c1)c1ccccc1 [Compound 181],> 30.5 µM,> 25 µM,> 14.5 µM,–
Cc1cnc2nc(-c3cc(NC(=O)c4ccc(C(F)(F)F)nc4C)ccc3Cl)[nH]c2c1 [Compound 162],> 50 µM,> 25 µM,1.23 µM,–
Cc1cnc2nc(-c3cc(NC(=O)Cc4nnn[nH]4)ccc3Cl)[nH]c2c1 [Compound 169],> 50 µM,> 25 µM,> 25 µM,–
"Cc1cnc2nc(-c3cc(NC(=O)NC4CCC4)ccc3Cl)[nH]c2c1 [Example 247, 1-(4-Chloro-3-{6-methyl-1H-imidazo[4,5-b]pyridin-2-yl}phenyl)-3-cyclobutylurea]",26.9 µM,> 25 µM,6.4 µM,–
Cc1cnc2nc(-c3cc(NC(=O)c4ccncc4)ccc3Cl)[nH]c2c1 [Compound 212],22.5 µM,6.6 µM,2.65 µM,–
COc1cc(-c2cnc3nc(-c4cc(NC(=O)c5ccco5)ccc4Cl)[nH]c3c2)ccc1NC(=O)OC(C)(C)C [Compound 34],1.79 µM,0.6 µM,0.105 µM,–
CN1CCc2cc(-c3cnc4nc(-c5cc(NC(=O)c6ccco6)ccc5Cl)[nH]c4c3)ccc21 [Compound 59],3.7 µM,1.34 µM,0.143 µM,–
Cc1cnc2nc(-c3cc(NC(=O)NC(C)C)ccc3Cl)[nH]c2c1 [Compound 249],> 30 µM,> 25 µM,14.1 µM,–
"Cc1cnc2nc(-c3cc(Nc4ccc(Cl)cc4)ccc3Cl)[nH]c2c1 [Example 256, 4-chloro-N-(4-chlorophenyl)-3-{6-methyl-1H-imidazo[4,5-b]pyridin-2-yl}aniline]",> 50 µM,> 25 µM,> 18.1 µM,–
Cc1cnc2nc(-c3cc(NC(=O)N4CCCCC4)ccc3Cl)[nH]c2c1 [Compound 239],> 35.6 µM,13.9 µM,2.06 µM,–
Cc1cnc2nc(-c3cc(NC(=O)Cc4ccc(OC(F)(F)F)cc4)ccc3Cl)[nH]c2c1 [Compound 121],> 21.2 µM,> 25 µM,> 17.3 µM,–
Cc1cnc2nc(-c3cc(Nc4cccnc4N4CCOCC4)ccc3Cl)[nH]c2c1 [Compound 264],> 32.3 µM,> 25 µM,11.7 µM,–
COC(=O)Nc1ccc(Cl)c(-c2nc3ncc(C)cc3[nH]2)c1 [Compound 224],11.1 µM,18.7 µM,2.61 µM,–
Cc1cnc2nc(-c3cc(N4CCOCC4)ccc3Cl)[nH]c2c1 [Compound 257],> 50 µM,> 25 µM,> 25 µM,–
O=C(Nc1ccc(Cl)c(-c2nc3ncc(-c4ccc(OCCN5CCOCC5)nc4)cc3[nH]2)c1)c1ccco1 [Compound 11],0.46 µM,0.55 µM,0.0064 µM,–
Cc1cnc2nc(-c3cc(NC(=O)C(F)(F)c4ccccc4)ccc3Cl)[nH]c2c1 [Compound 164],23.4 µM,> 25 µM,12.6 µM,–
"Cc1cnc2nc(-c3cc(NC(=O)N4CCOCC4)ccc3Cl)[nH]c2c1 [Example 237, N-(4-chloro-3-{6-methyl-1H-imidazo[4,5-b]pyridin-2-yl}phenyl)morpholine-4-carboxamide]",> 50 µM,> 25 µM,8.7 µM,–
Cc1cnc2nc(-c3cc(NC(=O)CNC(=O)OC(C)(C)C)ccc3Cl)[nH]c2c1 [Compound 112],> 50 µM,> 25 µM,> 24.1 µM,–
Cc1cnc2nc(-c3cc(NC(=O)OCC(F)(F)F)ccc3Cl)[nH]c2c1 [Compound 225],> 50 µM,> 25 µM,> 25 µM,–
Cc1cnc2nc(-c3cc(NC(=O)C(C)(C)NC(=O)OC(C)(C)C)ccc3Cl)[nH]c2c1 [Compound 111],> 50 µM,> 25 µM,> 13.6 µM,–
O=C(Nc1ccc(Cl)c(-c2nc3ncc(-c4ccnc(F)c4)cc3[nH]2)c1)c1ccco1 [Compound 51],0.56 µM,0.175 µM,0.0193 µM,–
CC(C)N1CCN(c2ccc(-c3cnc4nc(-c5cc(NC(=O)c6ccco6)ccc5Cl)[nH]c4c3)cc2)CC1 [Compound 62],9.4 µM,19.2 µM,0.52 µM,–
